Each structure is given as a SMILES string.

One test addresses LRRK2 (Homo sapiens, UniProt Q5S007). Briefly: LRRK2-LRRK2 G2019S-Assay (LanthaScreen Eu Kinase Binding Assay). To be noted: 5 nM LRRK2 or their mutants, 10 nM tracer 236, RT 1 h; read-out: LRRK2 Activities: IC50. Put shortly: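 Kinase (wild type or mutant, 5 nM) mixed with Eu-anti-GST antibody (2 nM), then 10 nM Alexa Fluor 647 tracer 236 added. After 1 h at room temperature, the acceptor/donor (665/615 nm) FRET ratio was measured. IC50 was fitted from concentration–ratio curves.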
For orientation: Time-resolved FRET reads energy transfer from a long-lived donor to a nearby acceptor.

The next test has as its target MYLK (Homo sapiens, UniProt Q15746). Briefly: MYLK Assay (LanthaScreen Eu Kinase Binding Assay). Particulars: 5 nM MYLK, 30 nM tracer 236, RT 1 h; read-out: MYLK Activities: IC50. As for the experimental part:
In the assay LanthaScreen™ Eu Kinase Binding Assay by Invitrogen Corporation (Carlsbad) the effect of invention of a compound on the phosphorylation is determined by measurement of fluorescence intensity emission ratio based on the binding and displacement of a proprietary, Alexa Fluor® 647-labeled, ATP-competitive kinase inhibitor scaffold (kinase tracer) to the kinase of interest as described above.
To the wells of an 384 well small volume plate (Greiner, Frickenhausen) are added (i) the compound under test in 5% is DMSO/distilled water (5 μl), (ii) 5 μl of the kinase antibody mixture resulting in a final concentration 5 nM MYLK, 2 nM EU-Anti-GST antibody in 1× kinase buffer A. The reaction was started with addition of (iii) 5 μl resulting in a final concentration of 30 nM tracer 236. The assay plate was incubated at RT for 1 h and fluorescence intensity readings were collected using a TECAN M1000 at two wavelengths of λex 340/λem 615 nm and λex 340/λem 665 nm with a delay time of 100 μs and an integration time of 200 μs after 60 minutes. The emission ratio was calculated by division of the acceptor/tracer emission ([…]) by the antibody/donor emission ([…]). The inhibitor concentration was plotted versus the emission ratio to determine the IC50 using XLFit 5.0 (IDBS, Guildford) to fit to a sigmoidal dose response curve with a variable slope.

For another test, the target named is T1, SYK kinase (Homo sapiens, UniProt P43405).
T1 construct: purchased Invitrogen, Carlsbad
Briefly: SYK Assay (OMNIA KINASE ASSAY, SOX peptide fluorescence). To be noted: apparent Ki calculated from the IC50 using the Cheng-Prusoff equation; 1 mM ATP, 30° C.; read-out: SYK Activities: Ki. It counts as biochemical. Put shortly:
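Apparent Ki values are derived by Cheng-Prusoff from IC50s of sigmoidal fits of reaction rate against compound concentration. Rates come from chelation-enhanced SOX fluorescence (λex 360/λem 485 nm, read every 30 s over 30 min) as the kinase phosphorylates 10 µM Omnia Tyr 7 peptide at 30 °C, with 1 mM ATP and 0.2 mM DTT.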

Sequence of MYLK (Q15746 whole entry): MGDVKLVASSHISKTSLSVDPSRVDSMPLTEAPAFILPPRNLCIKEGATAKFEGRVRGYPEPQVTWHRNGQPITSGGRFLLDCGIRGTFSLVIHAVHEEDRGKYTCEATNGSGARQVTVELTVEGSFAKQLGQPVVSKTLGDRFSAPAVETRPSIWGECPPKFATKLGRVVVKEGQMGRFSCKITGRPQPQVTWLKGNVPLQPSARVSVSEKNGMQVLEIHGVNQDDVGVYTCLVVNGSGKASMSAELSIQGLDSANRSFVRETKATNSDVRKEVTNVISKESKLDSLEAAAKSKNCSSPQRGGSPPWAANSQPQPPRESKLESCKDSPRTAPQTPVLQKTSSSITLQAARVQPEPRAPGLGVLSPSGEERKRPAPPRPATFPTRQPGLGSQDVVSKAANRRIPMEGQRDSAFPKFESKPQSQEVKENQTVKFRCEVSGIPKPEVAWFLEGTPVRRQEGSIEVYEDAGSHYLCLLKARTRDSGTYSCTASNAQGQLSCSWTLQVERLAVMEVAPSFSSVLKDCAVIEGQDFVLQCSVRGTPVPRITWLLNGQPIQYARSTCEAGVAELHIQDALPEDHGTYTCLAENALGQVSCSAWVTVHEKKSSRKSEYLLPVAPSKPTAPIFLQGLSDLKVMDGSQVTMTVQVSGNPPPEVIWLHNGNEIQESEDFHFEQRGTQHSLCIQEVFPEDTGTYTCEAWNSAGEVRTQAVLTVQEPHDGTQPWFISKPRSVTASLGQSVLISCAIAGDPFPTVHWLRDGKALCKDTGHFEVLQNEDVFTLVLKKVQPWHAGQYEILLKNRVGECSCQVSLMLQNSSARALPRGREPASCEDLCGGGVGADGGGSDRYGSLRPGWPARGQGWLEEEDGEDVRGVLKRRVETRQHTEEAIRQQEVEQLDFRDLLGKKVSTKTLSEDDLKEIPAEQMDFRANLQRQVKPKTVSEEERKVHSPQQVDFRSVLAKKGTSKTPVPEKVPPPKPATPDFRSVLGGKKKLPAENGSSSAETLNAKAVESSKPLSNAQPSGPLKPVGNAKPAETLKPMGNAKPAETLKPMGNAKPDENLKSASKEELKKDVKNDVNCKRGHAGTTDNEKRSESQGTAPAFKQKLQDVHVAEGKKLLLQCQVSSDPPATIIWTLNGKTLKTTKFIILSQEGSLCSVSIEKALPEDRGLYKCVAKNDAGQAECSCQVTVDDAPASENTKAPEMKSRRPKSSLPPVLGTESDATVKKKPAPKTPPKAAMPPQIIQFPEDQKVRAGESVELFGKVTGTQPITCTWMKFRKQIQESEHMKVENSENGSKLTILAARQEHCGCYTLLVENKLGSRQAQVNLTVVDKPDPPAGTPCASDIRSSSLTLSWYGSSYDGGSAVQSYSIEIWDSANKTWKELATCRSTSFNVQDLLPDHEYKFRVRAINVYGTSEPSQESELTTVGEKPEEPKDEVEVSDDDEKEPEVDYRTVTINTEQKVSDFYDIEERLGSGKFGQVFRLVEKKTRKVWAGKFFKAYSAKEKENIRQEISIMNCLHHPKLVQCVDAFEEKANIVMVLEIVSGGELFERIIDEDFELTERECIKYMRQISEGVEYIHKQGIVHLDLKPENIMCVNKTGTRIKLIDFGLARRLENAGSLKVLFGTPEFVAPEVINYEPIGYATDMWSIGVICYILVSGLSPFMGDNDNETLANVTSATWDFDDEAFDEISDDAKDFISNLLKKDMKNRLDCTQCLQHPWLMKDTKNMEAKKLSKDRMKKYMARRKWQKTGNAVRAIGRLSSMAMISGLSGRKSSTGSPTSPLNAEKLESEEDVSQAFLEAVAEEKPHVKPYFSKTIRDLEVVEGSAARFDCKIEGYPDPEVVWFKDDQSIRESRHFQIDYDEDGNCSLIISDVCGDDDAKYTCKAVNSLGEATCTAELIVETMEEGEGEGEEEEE
Sequence of LRRK2 (Q5S007 970-2527 limits assumed): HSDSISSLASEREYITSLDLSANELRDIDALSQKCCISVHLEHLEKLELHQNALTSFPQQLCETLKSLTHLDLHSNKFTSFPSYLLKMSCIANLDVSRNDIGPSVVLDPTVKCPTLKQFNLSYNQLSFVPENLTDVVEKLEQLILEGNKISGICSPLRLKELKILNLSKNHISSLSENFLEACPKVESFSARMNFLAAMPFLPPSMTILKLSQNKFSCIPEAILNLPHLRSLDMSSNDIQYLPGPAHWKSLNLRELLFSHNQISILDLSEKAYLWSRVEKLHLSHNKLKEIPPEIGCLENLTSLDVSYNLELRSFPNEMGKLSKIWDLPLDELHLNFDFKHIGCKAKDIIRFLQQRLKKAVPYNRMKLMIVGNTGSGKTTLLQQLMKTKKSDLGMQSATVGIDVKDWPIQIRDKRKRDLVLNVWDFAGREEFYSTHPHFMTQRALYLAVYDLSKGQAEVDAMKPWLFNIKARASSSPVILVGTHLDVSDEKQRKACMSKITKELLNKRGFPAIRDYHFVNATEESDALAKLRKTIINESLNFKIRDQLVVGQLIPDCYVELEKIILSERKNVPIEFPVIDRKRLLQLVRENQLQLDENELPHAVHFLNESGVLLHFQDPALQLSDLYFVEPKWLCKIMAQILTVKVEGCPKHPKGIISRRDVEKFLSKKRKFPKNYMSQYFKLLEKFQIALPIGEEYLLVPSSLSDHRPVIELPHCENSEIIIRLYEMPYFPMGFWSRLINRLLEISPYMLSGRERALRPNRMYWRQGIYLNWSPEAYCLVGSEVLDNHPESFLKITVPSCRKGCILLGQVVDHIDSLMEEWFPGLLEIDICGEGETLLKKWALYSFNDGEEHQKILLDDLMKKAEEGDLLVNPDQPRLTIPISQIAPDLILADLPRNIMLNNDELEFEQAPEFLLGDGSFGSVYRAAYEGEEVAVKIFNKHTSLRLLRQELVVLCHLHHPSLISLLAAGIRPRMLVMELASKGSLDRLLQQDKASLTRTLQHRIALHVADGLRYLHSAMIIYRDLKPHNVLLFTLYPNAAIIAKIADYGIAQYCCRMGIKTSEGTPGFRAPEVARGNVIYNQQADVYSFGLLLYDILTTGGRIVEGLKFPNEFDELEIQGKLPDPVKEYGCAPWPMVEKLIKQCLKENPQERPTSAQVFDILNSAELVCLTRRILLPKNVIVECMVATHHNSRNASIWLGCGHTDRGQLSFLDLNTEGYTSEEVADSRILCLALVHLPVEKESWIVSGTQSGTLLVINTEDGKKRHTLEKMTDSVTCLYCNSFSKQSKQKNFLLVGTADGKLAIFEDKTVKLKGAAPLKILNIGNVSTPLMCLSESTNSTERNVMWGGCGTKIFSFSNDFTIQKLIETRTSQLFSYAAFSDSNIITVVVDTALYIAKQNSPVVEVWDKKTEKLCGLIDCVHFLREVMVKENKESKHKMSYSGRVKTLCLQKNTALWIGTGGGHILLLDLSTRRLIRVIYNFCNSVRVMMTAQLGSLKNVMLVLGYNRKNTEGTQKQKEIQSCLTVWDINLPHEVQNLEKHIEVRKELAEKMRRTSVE

The term IC50 denotes the concentration that gives 50% inhibition. For `C[S+]([O-])c1cccc(Nc2nc(-c3cccs3)nc3cn[nH]c23)c1` (stereo not drawn) [Example #268, N-(3-(methylsulfinyl)phenyl)-5-(thiophen-2-yl)-1H-pyrazolo[4,3-d]pyrimidin-7-amine], the 50% inhibitory concentration (IC50) was 100 to 1000 nM at LRRK2 and < 5000 nM on MYLK. At SYK kinase, the Ki was 10 to 100 nM.

For `O=C(c1ccc(Nc2nc(-c3cccs3)nc3cn[nH]c23)cc1)N1CCOCC1` [Example #294, morpholino(4-((5-(thiophen-2-yl)-1H-pyrazolo[4,3-d]pyrimidin-7-yl)amino)phenyl)methanone], the IC50 on LRRK2 is 100 to 1000 nM; on MYLK, < 5000 nM. For the same compound, at SYK kinase, the Ki was 10 to 100 nM.

As for `COc1cc(C(=O)N2CCC(N3CCN(C)CC3)CC2)ccc1Nc1nc(-c2cccs2)nc2cn[nH]c12` [Example #139, (3-methoxy-4-((5-(thiophen-2-yl)-1H-pyrazolo[4,3-d]pyrimidin-7-yl)amino)phenyl)(4-(4-methylpiperazin-1-yl)piperidin-1-yl)methanone], the results for the IC50 at LRRK2 and at MYLK were 10 to 100 nM and < 5000 nM, respectively. In addition, the Ki on SYK kinase is 10 to 100 nM.

On to `COc1ccc(Nc2nc(-c3cccs3)nc3cn[nH]c23)cc1OC` [Example #68, N-(3,4-dimethoxyphenyl)-5-(thiophen-2-yl)-1H-pyrazolo[4,3-d]pyrimidin-7-amine], for which the IC50 on LRRK2 was 100 to 1000 nM; on MYLK, < 5000 nM. Moreover, the Ki on SYK kinase was < 10 nM.

As for `COc1ccc(-c2nc(Nc3ccc(OC)c(OC)c3)c3[nH]ncc3n2)cc1` [Example #58, N-(3,4-dimethoxyphenyl)-5-(4-methoxyphenyl)-1H-pyrazolo[4,3-d]pyrimidin-7-amine], the figures for the IC50 on LRRK2 and on MYLK were 100 to 1000 nM and < 5000 nM, respectively. Besides, on SYK kinase, the Ki was < 10 nM.

In the case of `CC(=O)N1CCN(c2ccc(Nc3nc(-c4ccsc4)nc4cn[nH]c34)cc2)CC1` [Example #144, 1-(4-(4-((5-(thiophen-3-yl)-1H-pyrazolo[4,3-d]pyrimidin-7-yl)amino)phenyl)piperazin-1-yl)ethan-1-one], the IC50 at LRRK2 was < 10 nM; at MYLK it was < 5000 nM. Besides, the Ki on SYK kinase was < 10 nM.

On to `CN(C)c1cccc(Nc2nc(-c3ccsc3)nc3cn[nH]c23)c1` [Example #114, N1,N1-dimethyl-N3-(5-(thiophen-3-yl)-1H-pyrazolo[4,3-d]pyrimidin-7-yl)benzene-1,3-diamine], for which the IC50 is 100 to 1000 nM on LRRK2 and < 5000 nM at MYLK. Moreover, the Ki at SYK kinase was 10 to 100 nM.

`CC(C)(C)N1CCN(c2ccc(Nc3nc(-c4ccsc4)nc4cn[nH]c34)cc2)CC1` [Example #161, N-(4-(4-(tert-butyl)piperazin-1-yl)phenyl)-5-(thiophen-3-yl)-1H-pyrazolo[4,3-d]pyrimidin-7-amine]: the IC50 on LRRK2 is 10 to 100 nM; at MYLK it was < 5000 nM. On SYK kinase, the Ki was < 10 nM.

For `O=S1(=O)CCN(c2ccc(Nc3nc(-c4ccsc4)nc4cn[nH]c34)cc2)CC1` [Example #143, 4-(4-((5-(thiophen-3-yl)-1H-pyrazolo[4,3-d]pyrimidin-7-yl)amino)phenyl)thiomorpholine 1,1-dioxide], the IC50 is 10 to 100 nM at LRRK2 and < 5000 nM at MYLK. In addition, the Ki on SYK kinase is < 10 nM.

Regarding `CN1CCN(c2ccc(Nc3nc(-c4ccccc4F)nc4cn[nH]c34)cc2)CC1` [Example #275, 5-(2-fluorophenyl)-N-(4-(4-methylpiperazin-1-yl)phenyl)-1H-pyrazolo[4,3-d]pyrimidin-7-amine], the IC50 at LRRK2 is 100 to 1000 nM; at MYLK, < 5000 nM. Also, the Ki at SYK kinase was < 10 nM.

Regarding `CN1CCN(c2ccc(Nc3nc(-c4ccc(N5CCCC5)nc4)nc4cn[nH]c34)cc2)CC1` [Example #46, N-(4-(4-methylpiperazin-1-yl)phenyl)-5-(6-(pyrrolidin-1-yl)pyridin-3-yl)-1H-pyrazolo[4,3-d]pyrimidin-7-amine], the IC50 at LRRK2 is 10 to 100 nM; on MYLK, < 5000 nM. In addition, the Ki on SYK kinase was < 10 nM.

Turning to `CC(=O)N1CCN(c2ccc(Nc3nc(-c4cccs4)nc4cn[nH]c34)cc2)CC1` [Example #138, 1-(4-(4-((5-(thiophen-2-yl)-1H-pyrazolo[4,3-d]pyrimidin-7-yl)amino)phenyl)piperazin-1-yl)ethan-1-one], the 50% inhibitory concentration (IC50) at LRRK2 was 100 to 1000 nM; at MYLK, < 5000 nM. For the same compound, the Ki at SYK kinase was < 10 nM.

With `CS(=O)(=O)c1cccc(Nc2nc(-c3cccs3)nc3cn[nH]c23)c1` [Example #254, N-(3-(methylsulfonyl)phenyl)-5-(thiophen-2-yl)-1H-pyrazolo[4,3-d]pyrimidin-7-amine], the IC50 was 100 to 1000 nM at LRRK2 and < 5000 nM on MYLK. In addition, the Ki on SYK kinase is 10 to 100 nM.

`CN1CCN(c2ccc(Nc3nc(-c4ccc5cn[nH]c5c4)nc4cn[nH]c34)cc2)CC1` [Example #248, 5-(1H-indazol-6-yl)-N-(4-(4-methylpiperazin-1-yl)phenyl)-1H-pyrazolo[4,3-d]pyrimidin-7-amine]: the IC50 at LRRK2 was 100 to 1000 nM; on MYLK, < 5000 nM. Moreover, the Ki at SYK kinase was < 10 nM.

Turning to `c1ccn2cc(-c3nc(Nc4ccc5cn[nH]c5c4)c4[nH]ncc4n3)nc2c1` [Example #127, 5-(imidazo[1,2-a]pyridin-2-yl)-N-(1H-indazol-6-yl)-1H-pyrazolo[4,3-d]pyrimidin-7-amine], the values for the IC50 at LRRK2 and at MYLK were 100 to 1000 nM and < 5000 nM, respectively. Moreover, the Ki on SYK kinase is 10 to 100 nM.

As for `CS(=O)(=O)Nc1cccc(-c2nc(Nc3ccc4c(c3)NC(=O)CC4)c3[nH]ncc3n2)c1` [Example #190, N-(3-(7-((2-oxo-1,2,3,4-tetrahydroquinolin-7-yl)amino)-1H-pyrazolo[4,3-d]pyrimidin-5-yl)phenyl)methanesulfonamide], the IC50 at LRRK2 is 10 to 100 nM; on MYLK it was < 5000 nM. Moreover, the Ki on SYK kinase was < 10 nM.

As to `c1csc(-c2nc(Nc3ccc(N4CCN(C5CC5)CC4)cc3)c3[nH]ncc3n2)c1` [Example #293, N-(4-(4-cyclopropylpiperazin-1-yl)phenyl)-5-(thiophen-2-yl)-1H-pyrazolo[4,3-d]pyrimidin-7-amine], the IC50 on LRRK2 was 100 to 1000 nM; on MYLK, < 5000 nM. The Ki at SYK kinase was < 10 nM.

For the compound `COc1cccc(-c2nc(Nc3ccc(N4CCN(C)CC4)cc3)c3[nH]ncc3n2)c1` [Example #62, 5-(3-methoxyphenyl)-N-(4-(4-methylpiperazin-1-yl)phenyl)-1H-pyrazolo[4,3-d]pyrimidin-7-amine], the half-maximal inhibitory concentration (IC50) is 10 to 100 nM at LRRK2 and < 5000 nM at MYLK. For the same compound, the Ki on SYK kinase was < 10 nM.

Regarding `COc1ccc(Nc2nc(-c3cccc(NS(C)(=O)=O)c3)nc3cn[nH]c23)cc1OC` [Example #189, N-(3-(7-((3,4-dimethoxyphenyl)amino)-1H-pyrazolo[4,3-d]pyrimidin-5-yl)phenyl)methanesulfonamide], the IC50 is 100 to 1000 nM on LRRK2 and < 5000 nM at MYLK. Besides, at SYK kinase, the Ki was < 10 nM.

Consider `CN(C)Cc1ccc(Nc2nc(-c3ccccc3)nc3cn[nH]c23)cc1` [Example #120, N-(4-((dimethylamino)methyl)phenyl)-5-phenyl-1H-pyrazolo[4,3-d]pyrimidin-7-amine], for which the IC50 on LRRK2 is 100 to 1000 nM; on MYLK it was < 5000 nM. In addition, the Ki on SYK kinase is 10 to 100 nM.

Turning to `CN1CCN(c2ccc(Nc3nc(-c4nc5ccccc5s4)nc4cn[nH]c34)cc2)CC1` [Example #95, 5-(benzo[d]thiazol-2-yl)-N-(4-(4-methylpiperazin-1-yl)phenyl)-1H-pyrazolo[4,3-d]pyrimidin-7-amine], the IC50 at LRRK2 was 10 to 100 nM; on MYLK it was < 5000 nM. The Ki at SYK kinase was < 10 nM.

As for `c1csc(-c2nc(Nc3ccc4c(c3)NCCO4)c3[nH]ncc3n2)c1` [Example #91, N-(5-(thiophen-2-yl)-1H-pyrazolo[4,3-d]pyrimidin-7-yl)-3,4-dihydro-2H-benzo[b][1,4]oxazin-6-amine], the IC50 at LRRK2 is 10 to 100 nM; at MYLK, < 5000 nM. Also, at SYK kinase, the Ki is < 10 nM.

`CN1CCN(c2ccc(Nc3nc(-c4cccs4)nc4cn[nH]c34)cc2)CC1` [Example #70, N-(4-(4-methylpiperazin-1-yl)phenyl)-5-(thiophen-2-yl)-1H-pyrazolo[4,3-d]pyrimidin-7-amine]: the results for the IC50 at LRRK2 and at MYLK were 10 to 100 nM and < 5000 nM, respectively. On SYK kinase, the Ki was < 10 nM.

These data come from US9802937B2, “Substituted pyrazolo{4,3-D}pyrimidines as kinase inhibitors” (ORIGENIS GMBH, priority 2011, dated 2017).
